# In patent EP3840748B1, “SUBSTITUTED IMIDAZOLES FOR THE INHIBITION OF TGF-BETA AND METHODS OF TREATMENT” (Clavius Pharmaceuticals, LLC, priority 2018, dated 2020):
# Where a name gives a salt, the structure may show the parent alone.
# Assays:
# [1] = system: TGF-beta 1 stimulated SBE-bla HEK 293T; assay: GeneBLAzer beta-lactamase (bla) reporter, TGF-beta 1 stimulated SBE-bla HEK 293T cell-based assay (ThermoFisher SelectScreen); conditions: Homo sapiens; SBE-bla HEK 293T cells; 30 minutes pre-incubation with inhibitor; TGF-beta 1 0.03 nM, 5 hours; inhibitor 10,000nM to 0.316nM; read-out: Cells (SBE_HEK293T) IC50
# Description: (§1) Table 2, below, describes the results of assays carried out on some compounds provided by the present disclosure. Exemplified compounds are confirmed to inhibit ALK5 activity in enzyme and cellular assays in the following assay systems conducted by ThermoFisher in Madison, WI according to their commercially available protocols.
# ThermoFisher SelectScreen™ Cell-based Pathway Profiling Service GeneBLAzer Beta-lactamase (bla) Reporter Technology - TGF-beta 1 stimulated SBE-bla HEK 293T Cell-based Assay
# SBE-bla HEK 293T cells are thawed and re-suspended in Assay Media (OPTI-MEM, 0.5% dialyzed FBS, 0.1 mM NEAA, 1 mM Sodium Pyruvate, 100 U/mL/100 µg/mL Pen/Strep) to a concentration of 625,000 cells/mL. 32 µL of cell suspension (20,000 cells) is added to each well of a 384-well Poly-D-Lysine assay plate. Cells in Assay Media are incubated for 16-24 hours in the plate at 37°C/5% CO2 in a humidified incubator. 4 µL of a 10X serial dilution of ALK5 inhibitors (10x = 100,000-3.16 nM) is added to appropriate wells of the plate and pre-incubated at 37°C/5% CO2 in a humidified incubator with cells for 30 minutes. Final concentration of inhibitor ranged from 10,000nM to 0.316nM. 4 µL of 10X TGF-beta 1 (final concentration of 0.03 nM) is added to wells containing the inhibitors. The plate is incubated for 5 hours at 37°C/5% CO2 in a humidified incubator. 8 µL of 1 µM Substrate Loading Solution is added to each well and the plate is incubated for 2 hours at room temperature before being read on a fluorescence plate reader. Percent inhibition is determined compared to DMSO only control (maximal TGF-beta 1 stimulation) and sigmoidal dose response curve fit yielded IC50 values as indicated in Table 2. TABLE 2: Biological activity assay results
# [2] = biological target: T1, TGFBR1 (ALK5) (Homo sapiens, UniProt P36897); assay: LanthaScreen Eu Kinase Binding Assay TGFBR1 (ALK5) (ThermoFisher SelectScreen); conditions: ALK5 5 nM, Tracer #178 5 nM, Eu-anti-GST antibody 2 nM, 1 hour at room temperature, 1% DMSO; read-out: TβRI (ALK5) Binding IC50
# T1 sequence (P36897 34-503): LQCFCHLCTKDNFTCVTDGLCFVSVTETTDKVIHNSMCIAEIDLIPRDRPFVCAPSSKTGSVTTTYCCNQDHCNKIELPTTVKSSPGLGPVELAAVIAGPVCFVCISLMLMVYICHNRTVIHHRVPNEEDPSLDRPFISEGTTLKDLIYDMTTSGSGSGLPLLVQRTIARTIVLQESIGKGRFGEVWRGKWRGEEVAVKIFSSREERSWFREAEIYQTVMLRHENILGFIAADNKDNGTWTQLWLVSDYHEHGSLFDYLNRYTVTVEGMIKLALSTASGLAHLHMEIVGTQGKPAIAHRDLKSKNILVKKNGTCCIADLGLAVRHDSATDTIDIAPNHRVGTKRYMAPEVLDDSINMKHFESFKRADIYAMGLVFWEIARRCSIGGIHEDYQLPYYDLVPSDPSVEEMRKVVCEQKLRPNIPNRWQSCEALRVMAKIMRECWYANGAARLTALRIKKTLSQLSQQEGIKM
# Description: as §1
# ThermoFisher SelectScreen™ Biochemical Kinase Profiling Service, LanthaScreen™Eu Kinase Binding Assay TGFBR1 (ALK5)
# Exemplified compounds are screened in 1% DMSO (final concentration) by 3-fold serial dilutions from 10,000 nM to 0.316 nM or at single concentrations of 10,000, 1000 and 100 nM according to the following protocol. To low volume, white 384-well plates (Greiner Cat#784207) add 160 nL 100x compound in 100% DMSO, 3.84 uL kinase buffer (50 mM HEPES, pH 7.5, 0.01% BRIJ-35, 10 mM MgCl2, 1 mM EGTA), 8 uL 2x kinase/antibody mixture in kinase buffer (final ALK5 concentration of 5 nM; final Eu-anti-GST antibody concentration of 2 nM), 4 uL 4x Tracer #178 in kinase buffer (final concentration of 5 nM). Gently shake the plates for 30 seconds and incubate at room temperature for 1 hour before reading fluorescence on a plate reader. Percent inhibition is determined compared to DMSO only control (maximal ALK5 tracer binding) and sigmoidal dose response curve fit yielded IC50 values as indicated in Table 2.
SMILES,IC50 [1] [nM],IC50 [2] [nM]
"CC(C)n1ccc(-c2nc3sccn3c2-c2ccc3ncn(C)c(=O)c3c2)n1 [Compound 91, 6-(6-(1-Isopropyl-1H-pyrazol-3-yl)imidazo [2,1-b]thiazol-5-yl)-3-methylquinazolin-4(3H)-one]",1100,22
"CS(=O)(=O)c1ccc(-c2cc(-c3c(-c4ccn(C5CC5)n4)nc4n3CCC4)ccn2)cc1 [Compound 86, 2-(1-Cyclopropyl-1H-pyrazol-3-yl)-3-(2-(4-(methylsulfonyl)phenyl)pyridin-4-yl)-6,7-dihydro-5H-pyrrolo[1,2-a]imidazole]",1400,129
"CC(C)(O)c1cnc2ccc(-c3c(-c4ccn(C5CC5)n4)nc4n3CCC4)cn12 [Compound 75, 2-(6-(2-(1-Cyclopropyl-1H-pyrazol-3-yl)-6,7-dihydro-5H-pyrrolo[1,2-a]imidazol-3-yl)imidazo[1,2-a]pyridin-3-yl)propan-2-ol]",930,66
"NC(=O)c1ncnc2ccc(-c3c(-c4ccn(C5CC5)n4)nc4sccn34)cc12 [Compound 96, 6-(6-(1-Cyclopropyl-1H-pyrazol-3-yl)imidazo[2,1-b]thiazol-5-yl)quinazoline-4-carboxamide]",24.9,1.7
"Cn1cnc2ccc(-c3c(-c4ccn(C5CC5)n4)nc4n3CCC4)cc2c1=O [Compound 18, 6-{3-(1-Cyclopropyl-1H-pyrazol-3-yl)-1,4-diazabicyclo[3.3.0]octa-2,4-dien-2-yl}-3-methyl-3H-quinazolin-4-one]",69,6.7
"O=c1c2cc(-c3c(-c4ccn(C5CC5)n4)nc4n3CCC4)ccc2ncn1CCN1CCOCC1 [Compound 28, 6-{3-(1-Cyclopropyl-1H-pyrazol-3-yl)-1,4-diazabicyclo[3.3.0]octa-2,4-dien-2-yl}-3-(2-morpholinoethyl)-3H-quinazolin-4-one]",–,107
"O=C(NC1CCOCC1)c1ccc(-c2cc(-c3c(-c4ccn(C5CC5)n4)nc4n3CCC4)ccn2)cc1 [Compound 88, 4-(4-(2-(1-Cyclopropyl-1H-pyrazol-3-yl)-6,7-dihydro-5H-pyrrolo[1,2-a]imidazol-3-yl)pyridin-2-yl)-N-(tetrahydro-2H-pyran-4-yl)benzamide]",988,55
"CC(C)n1ccc(-c2nc3occn3c2-c2ccc3ncn(C)c(=O)c3c2)n1 [Compound 25, 6-{7-(1-Isopropyl-1H-pyrazol-3-yl)-4-oxa-1,6-diazabicyclo[3.3.0]octa-2,5,7-trien-8-yl}-3-methyl-3H-quinazolin-4-one]",238,7.2
"O=c1[nH]cnc2ccc(-c3c(-c4ccn(C5CC5)n4)nc4occn34)cc12 [Compound 24, 6-{7-(1-Cyclopropyl-1H-pyrazol-3-yl)-4-oxa-1,6-diazabicyclo[3.3.0]octa-2,5,7-trien-8-yl}-3H-quinazolin-4-one]",37,1.8
"Cn1cnc2ccc(-c3c(-c4ccn(CC(F)F)n4)nc4n3CCC4)cc2c1=O [Compound 50, 6-{3-[1-(2,2-Difluoroethyl)-1H-pyrazol-3-yl]-1,4-diazabicyclo[3.3.0]octa-2,4-dien-2-yl}-3-methyl-3H-quinazolin-4-one]",253,90
"CC(C)n1ccc(-c2nc3n(c2-c2ccc4ncc(C(N)=O)n4c2)CCC3)n1 [Compound 7, 5-{3-(1-Isopropyl-1H-pyrazol-3-yl)-1,4-diazabicyclo[3.3.0]octa-2,4-dien-2-yl}-1,3a-diaza-3-indenecarboxamide]",248,5.5
"Oc1ncnc2ccc(-c3c(-c4ccn(C5CC5)n4)nc4n3CCC4)cc12 [Compound 16, 6-{3-(1-Cyclopropyl-1H-pyrazol-3-yl)-1,4-diazabicyclo[3.3.0]octa-2,4-dien-2-yl}-3H-quinazolin-4-one]",117,2.6
"Cn1cnc2ccc(-c3c(-c4ccn(C5CCC5)n4)nc4n3CCC4)cc2c1=O [Compound 94, 6-(2-(1-Cyclobutyl-1H-pyrazol-3-yl)-6,7-dihydro-5H-pyrrolo[1,2-a]imidazol-3-yl)-3-methylquinazolin-4(3H)-one]",4080,27
"O=c1[nH]cnc2ccc(-c3c(-c4ccn(C5CC5)n4)nc4sccn34)cc12 [Compound 90, 6-{7-(1-Cyclopropyl-1H-pyrazol-3-yl)-4-thia-1,6-diazabicyclo[3.3.0]octa-2,5,7-trien-8-yl}-3H-quinazolin-4-one]",35.6,2.5
"Cn1cnc2ccc(-c3c(-c4ccn(C5CC5)n4)nc4occn34)cc2c1=O [Compound 26, 6-{7-(1-Cyclopropyl-1H-pyrazol-3-yl)-4-oxa-1,6-diazabicyclo[3.3.0]octa-2,5,7-trien-8-yl}-3-methyl-3H-quinazolin-4-one]",33.8,3.1
"CC(C)n1ccc(-c2nc3occn3c2-c2ccc3nc[nH]c(=O)c3c2)n1 [Compound 23, 6-{7-(1-Isopropyl-1H-pyrazol-3-yl)-4-oxa-1,6-diazabicyclo[3.3.0]octa-2,5,7-trien-8-yl}-3H-quinazolin-4-one]",239,5.2
"O=C(c1ccc(-c2cc(-c3c(-c4ccn(C5CC5)n4)nc4n3CCC4)ccn2)cc1)N1CCOCC1 [Compound 93, (4-(4-(2-(1-Cyclopropyl-1H-pyrazol-3-yl)-6,7-dihydro-5H-pyrrolo[1,2-a]imidazol-3-yl)pyridin-2-yl)phenyl)(morpholino)methanone]",–,244
"CC(C)n1ccc(-c2nc3sccn3c2-c2ccc3nc[nH]c(=O)c3c2)n1 [Compound 97, 6-(6-(1-Isopropyl-1H-pyrazol-3-yl)imidazo[2,1-b]thiazol-5-yl)quinazolin-4(3H)-one hydrochloride]",528,12.5
"Cn1cnc2ccc(-c3c(-c4ccn(C5CC5)n4)nc4sccn34)cc2c1=O [Compound 89, 6-{7-(1-Cyclopropyl-1H-pyrazol-3-yl)-4-thia-1,6-diazabicyclo[3.3.0]octa-2,5,7-trien-8-yl}-3-methyl-3H-quinazolin-4-one]",27,2.5
"O=c1[nH]cnc2ccc(-c3c(-c4ccn(CC(F)F)n4)nc4n3CCC4)cc12 [Compound 49, 6-{3-[1-(2,2-Difluoroethyl)-1H-pyrazol-3-yl]-1,4-diazabicyclo[3.3.0]octa-2,4-dien-2-yl}-3H-quinazolin-4-one]",2400,52
"Cn1cnc2ccc(-c3c(-c4ccn(C5CC5)n4)nc4n3CCN4)cc2c1=O [Compound 22, 6-{3-(1-Cyclopropyl-1H-pyrazol-3-yl)-1,4,6-triazabicyclo[3.3.0]octa-2,4-dien-2-yl}-3-methyl-3H-quinazolin-4-one]",27.4,7.2
"NC(=O)c1cnc2ccc(-c3c(-c4ccn(C5CC5)n4)nc4n3CCC4)cn12 [Compound 8, 5-{3-(1-Cyclopropyl-1H-pyrazol-3-yl)-1,4-diazabicyclo[3.3.0]octa-2,4-dien-2-yl}-1,3a-diaza-3-indenecarboxamide]",84,3.3
